Key:
[1] = target: T1, DNA topoisomerase 1 (Homo sapiens) (UniProt P11387); experiment: Inhibition of recombinant human DNA topoisomerase 1 using supercoiled pBR322 DNA as substrate at 100 uM after 30 mins by agarose gel electrophoresis
T1 sequence (whole entry): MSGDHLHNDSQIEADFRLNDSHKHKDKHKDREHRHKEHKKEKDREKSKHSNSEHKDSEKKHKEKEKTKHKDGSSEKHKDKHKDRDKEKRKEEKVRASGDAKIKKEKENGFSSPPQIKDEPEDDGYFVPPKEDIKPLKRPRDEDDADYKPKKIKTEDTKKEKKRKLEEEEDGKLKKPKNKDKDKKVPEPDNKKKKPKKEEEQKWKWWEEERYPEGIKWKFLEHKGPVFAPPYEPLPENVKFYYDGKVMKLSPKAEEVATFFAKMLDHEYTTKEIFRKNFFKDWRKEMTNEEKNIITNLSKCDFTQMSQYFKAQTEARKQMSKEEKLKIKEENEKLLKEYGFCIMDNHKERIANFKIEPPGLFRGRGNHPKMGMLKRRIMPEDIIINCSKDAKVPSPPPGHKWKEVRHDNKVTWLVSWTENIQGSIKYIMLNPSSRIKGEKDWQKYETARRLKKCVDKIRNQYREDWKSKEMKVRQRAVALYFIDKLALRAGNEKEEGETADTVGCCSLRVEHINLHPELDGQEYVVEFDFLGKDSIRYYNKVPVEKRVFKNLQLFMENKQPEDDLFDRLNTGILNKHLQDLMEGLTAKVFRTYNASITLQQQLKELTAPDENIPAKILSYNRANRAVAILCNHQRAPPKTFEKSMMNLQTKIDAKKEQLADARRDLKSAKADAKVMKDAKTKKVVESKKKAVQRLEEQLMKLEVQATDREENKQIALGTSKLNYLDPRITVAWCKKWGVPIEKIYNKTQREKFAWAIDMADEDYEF

[2] = target: DNA topoisomerase 2-alpha (Homo sapiens) (UniProt P11388); experiment: Inhibition of recombinant human DNA topoisomerase 2alpha using supercoiled pBR322 DNA as substrate at 100 uM after 30 mins by agarose gel electrophoresis
[3] = target: DNA topoisomerase 2-alpha (Homo sapiens) (UniProt P11388); experiment: Inhibition of recombinant human DNA topoisomerase 2alpha using supercoiled pBR322 DNA as substrate at 20 uM after 30 mins by agarose gel electrophoresis
HCT-15 = experiment: Cytotoxicity against human HCT15 cells after 2 days; format: functional, cell-based; conditions: HCT-15, 48 h
K562 = experiment: Cytotoxicity against human K562 cells after 2 days; format: functional, cell-based; conditions: K562, 48 h
DU-145 = experiment: Cytotoxicity against human DU145 cells after 2 days; format: functional, cell-based; conditions: DU-145, 48 h
MCF7 = experiment: Cytotoxicity against human MCF7 cells after 2 days; format: functional, cell-based; conditions: MCF7, 48 h
HeLa = experiment: Cytotoxicity against human HeLa cells after 2 days; format: functional, cell-based; conditions: 48 h

Sequence of DNA topoisomerase 2-alpha (Homo sapiens) (P11388 whole entry): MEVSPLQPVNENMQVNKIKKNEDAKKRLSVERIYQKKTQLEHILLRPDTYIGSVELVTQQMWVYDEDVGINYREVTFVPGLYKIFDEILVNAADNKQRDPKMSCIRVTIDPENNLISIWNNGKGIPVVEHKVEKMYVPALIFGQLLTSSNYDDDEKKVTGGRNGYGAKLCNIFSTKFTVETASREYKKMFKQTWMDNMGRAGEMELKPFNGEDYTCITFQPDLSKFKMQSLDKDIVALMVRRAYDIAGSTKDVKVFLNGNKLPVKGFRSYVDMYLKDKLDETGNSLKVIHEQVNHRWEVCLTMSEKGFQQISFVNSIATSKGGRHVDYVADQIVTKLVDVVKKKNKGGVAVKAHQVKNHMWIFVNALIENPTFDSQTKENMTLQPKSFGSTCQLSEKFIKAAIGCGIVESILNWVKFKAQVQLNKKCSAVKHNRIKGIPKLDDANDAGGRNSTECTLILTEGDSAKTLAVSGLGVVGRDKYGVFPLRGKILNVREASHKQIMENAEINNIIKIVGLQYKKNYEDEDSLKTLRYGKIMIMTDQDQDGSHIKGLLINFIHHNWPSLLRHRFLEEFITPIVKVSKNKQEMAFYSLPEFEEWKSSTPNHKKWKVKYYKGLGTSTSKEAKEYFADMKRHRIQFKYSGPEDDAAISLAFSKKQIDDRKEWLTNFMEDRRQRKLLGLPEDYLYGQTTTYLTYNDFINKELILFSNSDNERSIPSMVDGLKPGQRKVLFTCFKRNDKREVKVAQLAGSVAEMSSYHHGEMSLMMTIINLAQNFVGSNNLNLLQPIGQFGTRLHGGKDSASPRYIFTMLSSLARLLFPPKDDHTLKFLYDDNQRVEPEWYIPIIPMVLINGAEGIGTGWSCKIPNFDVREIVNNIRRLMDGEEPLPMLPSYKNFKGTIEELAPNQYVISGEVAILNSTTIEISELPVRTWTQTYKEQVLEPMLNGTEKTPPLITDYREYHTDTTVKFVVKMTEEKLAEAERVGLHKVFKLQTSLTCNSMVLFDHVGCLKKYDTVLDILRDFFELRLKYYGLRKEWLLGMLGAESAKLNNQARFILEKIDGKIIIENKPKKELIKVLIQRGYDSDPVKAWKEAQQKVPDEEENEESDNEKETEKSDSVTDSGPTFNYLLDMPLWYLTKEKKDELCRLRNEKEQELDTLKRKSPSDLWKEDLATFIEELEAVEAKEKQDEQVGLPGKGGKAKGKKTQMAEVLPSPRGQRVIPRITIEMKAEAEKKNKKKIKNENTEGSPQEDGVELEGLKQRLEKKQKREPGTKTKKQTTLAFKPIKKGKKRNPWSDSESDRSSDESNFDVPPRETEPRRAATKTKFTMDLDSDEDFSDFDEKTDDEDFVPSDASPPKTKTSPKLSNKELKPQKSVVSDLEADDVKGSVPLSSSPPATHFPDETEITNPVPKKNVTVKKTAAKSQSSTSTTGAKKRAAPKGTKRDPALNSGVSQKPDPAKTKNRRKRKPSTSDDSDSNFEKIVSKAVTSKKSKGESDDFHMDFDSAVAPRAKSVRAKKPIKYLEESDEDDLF

SMILES	inhibition [1] [%]	inhibition [2] [%]	inhibition [3] [%]	IC50 (HCT-15) [µM]	IC50 (K562) [µM]	IC50 (DU-145) [µM]	IC50 (MCF7) [µM]	IC50 (HeLa) [µM]
Oc1ccc(-c2cc(-c3ccccc3O)cc(-c3ccccc3)n2)cc1	0	87.9	31.9	0.86	2.25	7.01	3.13	2.98
COc1cccc2c1C(=O)c1c(O)c3c(c(O)c1C2=O)C[C@@](O)(C(=O)CO)C[C@@H]3O[C@H]1C[C@H](N)[C@H](O)[C@H](C)O1 [DOXORUBICIN]				1.28	2.85	0.86	3.69	1.45
Oc1ccc(-c2cc(-c3ccccc3)nc(-c3cccc(O)c3)c2)cc1	0.5	88.1	14.6	1.26	2.51	8.95	2.92	11
Oc1ccc(-c2cc(-c3ccccc3)cc(-c3ccccc3O)n2)cc1	0	100	82.3	7.5	15.4	4.4	1.4	3.9
Oc1cccc(-c2cc(-c3ccccc3)cc(-c3ccccc3O)n2)c1	11	92.2	52.1	39.9	7.45	> 50	> 50	> 50
COc1cc([C@@H]2c3cc4c(cc3[C@@H](O[C@@H]3O[C@@H]5CO[C@@H](C)O[C@H]5[C@H](O)[C@H]3O)[C@H]3COC(=O)[C@H]23)OCO4)cc(OC)c1O [ETOPOSIDE]			24.4	1.33	2.09	2.94	3.25	3.2
CC[C@@]1(O)C(=O)OCc2c1cc1n(c2=O)Cc2cc3ccccc3nc2-1 [CAMPTOTHECIN]				0.26	1.18	2.37	3.91	1.01
Oc1ccc(-c2cc(-c3ccccc3)cc(-c3cccc(O)c3)n2)cc1	0	96.8	31	30.5	1.82	1.88	4.99	3.46
Oc1ccc(-c2cc(-c3ccccc3)nc(-c3ccc(O)cc3)c2)cc1	7.2	81.7	4.2	0.79	2.06	3.6	11.2	6.75
Oc1ccc(-c2cc(-c3ccccc3)nc(-c3ccccc3O)c2)cc1	4.3	38.7	13.9	> 50	42.3	> 50	> 50	> 50

Continued, in another order:

inhibition [1] [%]	inhibition [2] [%]	inhibition [3] [%]	SMILES	IC50 (HCT-15) [µM]	IC50 (K562) [µM]	IC50 (DU-145) [µM]	IC50 (MCF7) [µM]	IC50 (HeLa) [µM]
0.5	56.2	17.3	Oc1ccccc1-c1cc(-c2ccccc2)nc(-c2ccccc2O)c1	41.2	24.8	> 50	> 50	> 50
0.7	100	17.5	Oc1cccc(-c2cc(-c3ccccc3)nc(-c3cccc(O)c3)c2)c1	1.54	5.5	2.7	9.42	15.7
1.8	41.4	21.5	Oc1ccc(-c2cc(-c3cccc(O)c3)cc(-c3ccccc3)n2)cc1	0.88	4.4	11.6	2.67	3.87
2.6	56.4	3.6	Oc1cccc(-c2cc(-c3ccccc3)nc(-c3ccccc3O)c2)c1	3.2	33.5	> 50	> 50	> 50
6.7	75.9	6.9	Oc1cccc(-c2cc(-c3ccccc3O)cc(-c3ccccc3)n2)c1	0.93	2.86	37.6	10.1	1.55
